Laboratory results taken from PubChem BioAssay AID256 (DTP/NCI, 2004).
Values joined by “and” are separate entries in the source; they are usually repeats but may differ in a detail not shown here. Equal values may be shown once. Toxic doses and inconclusive results are not listed. The calls were made as follows: active = survival T/C of 150% or more; inactive = T/C below 125% in these data.

System: CD2F1 mice, L1210 leukemia ip, survival T/C
Assay: NCI In Vivo Anticancer Drug Screen. Data for tumor model L1210 Leukemia (intraperitoneal) in CD2F1 (CDF1) mice
Conditions: higher = longer survival
Outline: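 Each value reflects a quotient of treated over vehicle control outcomes in mice with a transplanted tumor.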

[1] = endpoint: mean survival time, dose: 6.25 mg/kg/injection, schedule: Q04DX003 (ip), vehicle: saline with Tween-80
[2] = endpoint: mean survival time, dose: 12.5 mg/kg/injection, schedule: Q04DX003 (ip), vehicle: saline with Tween-80
[3] = endpoint: mean survival time, dose: 25.0 mg/kg/injection, schedule: Q04DX003 (ip), vehicle: saline with Tween-80
[4] = endpoint: mean survival time, dose: 50.0 mg/kg/injection, schedule: Q01DX001 (ip), vehicle: saline with Tween-80
[5] = endpoint: mean survival time, dose: 50.0 mg/kg/injection, schedule: Q01DX009 (ip), vehicle: saline with Tween-80
[6] = endpoint: mean survival time, dose: 100.0 mg/kg/injection, schedule: Q01DX009 (ip), vehicle: saline with Tween-80
[7] = endpoint: mean survival time, dose: 200.0 mg/kg/injection, schedule: Q01DX009 (ip), vehicle: saline with Tween-80
[8] = endpoint: mean survival time, dose: 100.0 mg/kg/injection, schedule: Q04DX003 (ip), vehicle: saline with Tween-80
[9] = endpoint: mean survival time, dose: 200.0 mg/kg/injection, schedule: Q04DX003 (ip), vehicle: saline with Tween-80
[10] = endpoint: mean survival time, dose: 400.0 mg/kg/injection, schedule: Q04DX003 (ip), vehicle: saline with Tween-80

Measured: T/C

CCCCCCCCCCC(CCCCCCCCCC)c1ccccc1
inactive: endpoint: mean survival time, dose: 100.0 mg/kg/injection, schedule: Q01DX001 (ip), vehicle: saline sonified 108 % of control | endpoint: mean survival time, dose: 200.0 mg/kg/injection, schedule: Q01DX001 (ip), vehicle: saline sonified 104 % of control | endpoint: mean survival time, dose: 400.0 mg/kg/injection, schedule: Q01DX001 (ip), vehicle: saline sonified 114 % of control

Cl
inactive: endpoint: mean survival time, dose: 6.25 mg/kg/injection, schedule: Q01DX009 (ip), vehicle: saline sonified 103 % of control | [1] 100 % of control | endpoint: mean survival time, dose: 12.5 mg/kg/injection, schedule: Q01DX009 (ip), vehicle: saline sonified 101 % of control | [2] 98 % of control | endpoint: mean survival time, dose: 25.0 mg/kg/injection, schedule: Q01DX009 (ip), vehicle: saline sonified 106 % of control | [3] 98 % of control

C=Cc1nnnn1C12CC3CC(CC(C3)C1)C2
inactive: [4] 106 % of control | endpoint: mean survival time, dose: 100.0 mg/kg/injection, schedule: Q01DX001 (ip), vehicle: saline with Tween-80 112 % of control

COc1cc2c(cc1OC)C1C(=CCC3c4cc(OC)c(OC)cc4CC[N+]31C)C=C2 (stereo not drawn)
inactive: [1] 102 % of control | [2] 102 % of control | [3] 98 % of control

CCCSCCSCCC
inactive: endpoint: mean survival time, dose: 25.0 mg/kg/injection, schedule: Q01DX009 (ip), vehicle: saline with Tween-80 103 % of control | [5] 103 % of control | [6] 117 % of control

Cc1cccc(C(=O)C(=O)c2cccc(C)c2C)c1C
inactive: endpoint: mean survival time, dose: 75.0 mg/kg/injection, schedule: Q01DX001 (ip), vehicle: other 93 % of control | endpoint: mean survival time, dose: 150.0 mg/kg/injection, schedule: Q01DX001 (ip), vehicle: other 93 % of control | endpoint: mean survival time, dose: 300.0 mg/kg/injection, schedule: Q01DX001 (ip), vehicle: other 100 % of control

COc1cc(OC)c(NC(=O)Oc2ccc3ccccc3c2)cc1Cl
inactive: [5] 94 % of control | [6] 94 % of control | [7] 97 % of control

C/C=C(\C)c1cc(=O)c2c(C)cc3c(c2o1)C(=O)c1c(O)c(C2CC(C)(N(C)C)C(O)C(C)O2)cc(C2CC(N(C)C)C(O)C(C)O2)c1C3=O (stereo not drawn)
inactive: endpoint: mean survival time, dose: 0.38 mg/kg/injection, schedule: Q01DX009 (ip), vehicle: saline 102 % of control | endpoint: mean survival time, dose: 0.62 mg/kg/injection, schedule: Q01DX009 (ip), vehicle: saline 115 % of control | endpoint: mean survival time, dose: 0.63 mg/kg/injection, schedule: Q01DX009 (ip), vehicle: saline 116 % of control | endpoint: mean survival time, dose: 0.75 mg/kg/injection, schedule: Q01DX009 (ip), vehicle: saline 109 % of control | endpoint: mean survival time, dose: 1.25 mg/kg/injection, schedule: Q01DX009 (ip), vehicle: saline 113 % of control and 105 % of control | endpoint: mean survival time, dose: 1.5 mg/kg/injection, schedule: Q01DX009 (ip), vehicle: saline 113 % of control | endpoint: mean survival time, dose: 3.0 mg/kg/injection, schedule: Q01DX009 (ip), vehicle: saline 107 % of control | endpoint: mean survival time, dose: 3.13 mg/kg/injection, schedule: Q01DX009 (ip), vehicle: saline with Tween-80 98 % of control | endpoint: mean survival time, dose: 31.25 micrograms/kg/injection, schedule: Q01DX009 (ip), vehicle: saline 103 % of control | endpoint: mean survival time, dose: 62.5 micrograms/kg/injection, schedule: Q01DX009 (ip), vehicle: saline 115 % of control | endpoint: mean survival time, dose: 125.0 micrograms/kg/injection, schedule: Q01DX009 (ip), vehicle: saline 111 % of control | endpoint: mean survival time, dose: 156.25 micrograms/kg/injection, schedule: Q01DX009 (ip), vehicle: saline 119 % of control | endpoint: mean survival time, dose: 250.0 micrograms/kg/injection, schedule: Q01DX009 (ip), vehicle: saline 115 % of control | endpoint: mean survival time, dose: 500.0 micrograms/kg/injection, schedule: Q01DX009 (ip), vehicle: saline 115 % of control | endpoint: mean survival time, dose: 625.0 micrograms/kg/injection, schedule: Q01DX009 (ip), vehicle: saline 104 % of control | endpoint: mean survival time, dose: 1000.0 micrograms/kg/injection, schedule: Q01DX009 (ip), vehicle: saline 105 % of control | endpoint: mean survival time, dose: 1250.0 micrograms/kg/injection, schedule: Q01DX009 (ip), vehicle: saline 120 % of control | endpoint: mean survival time, dose: 2500.0 micrograms/kg/injection, schedule: Q01DX009 (ip), vehicle: saline 95 % of control | endpoint: median survival time, dose: 3.13 mg/kg/injection, schedule: Q01DX001 (ip), vehicle: saline with Tween-80 111 % of control | endpoint: median survival time, dose: 6.25 mg/kg/injection, schedule: Q01DX001 (ip), vehicle: saline with Tween-80 111 % of control | endpoint: median survival time, dose: 12.5 mg/kg/injection, schedule: Q01DX001 (ip), vehicle: saline with Tween-80 122 % of control | endpoint: median survival time, dose: 25.0 mg/kg/injection, schedule: Q01DX001 (ip), vehicle: saline with Tween-80 111 % of control

COc1ccccc1F
inactive: endpoint: mean survival time, dose: 10.0 mg/kg/injection, schedule: Q01DX009 (ip), vehicle: saline with Tween-80 100 % of control | endpoint: mean survival time, dose: 20.0 mg/kg/injection, schedule: Q01DX009 (ip), vehicle: saline with Tween-80 102 % of control | endpoint: mean survival time, dose: 40.0 mg/kg/injection, schedule: Q01DX009 (ip), vehicle: saline with Tween-80 102 % of control

C(=C(/C=C/c1ccccc1)/C=C/c1ccccc1)C(=C/c1ccccc1)/c1ccccc1
inactive: endpoint: mean survival time, dose: 12.5 mg/kg/injection, schedule: Q01DX001 (ip), vehicle: saline with Tween-80 100 % of control | endpoint: mean survival time, dose: 12.5 mg/kg/injection, schedule: Q01DX009 (ip), vehicle: saline with Tween-80 91 % of control | endpoint: mean survival time, dose: 25.0 mg/kg/injection, schedule: Q01DX001 (ip), vehicle: saline with Tween-80 90 % of control | [4] 92 % of control | [5] 86 % of control

CC(=O)O.CC(=O)O.[Co].[NH2-].[NH2-].[NH2-].[NH2-]
inactive: endpoint: mean survival time, dose: 6.25 mg/kg/injection, schedule: Q04DX002 (ip), vehicle: saline with Tween-80 93 % of control | endpoint: mean survival time, dose: 12.5 mg/kg/injection, schedule: Q04DX002 (ip), vehicle: saline with Tween-80 87 % of control

CC(=O)COc1cccc(C)c1
inactive: [8] 100 % of control | [9] 103 % of control | [10] 93 % of control

COc1cc2c(cc1O)NC(OC)C1CC(O)CN1C2=O (stereo not drawn)
inactive: endpoint: median survival time, dose: 0.02 mg/kg/injection, schedule: Q01DX005 (ip), vehicle: DMSO 101 % of control | endpoint: median survival time, dose: 0.4 mg/kg/injection, schedule: Q01DX005 (ip), vehicle: DMSO 102 % of control | endpoint: median survival time, dose: 0.8 mg/kg/injection, schedule: Q01DX005 (ip), vehicle: DMSO 100 % of control | endpoint: median survival time, dose: 1.6 mg/kg/injection, schedule: Q01DX005 (ip), vehicle: DMSO 102 % of control | endpoint: median survival time, dose: 3.2 mg/kg/injection, schedule: Q01DX005 (ip), vehicle: DMSO 111 % of control | endpoint: median survival time, dose: 6.4 mg/kg/injection, schedule: Q01DX005 (ip), vehicle: DMSO 115 % of control

NC(=O)c1c(F)cccc1Cl
inactive: [6] 102 % of control | [8] 101 % of control | [7] 105 % of control | [9] 98 % of control | endpoint: mean survival time, dose: 400.0 mg/kg/injection, schedule: Q01DX009 (ip), vehicle: saline with Tween-80 102 % of control | [10] 106 % of control

CS(=O)(=O)Oc1ccccc1OS(C)(=O)=O
inactive: endpoint: mean survival time, dose: 50.0 mg/kg/injection, schedule: Q04DX002 (ip), vehicle: saline with Tween-80 113 % of control | endpoint: mean survival time, dose: 100.0 mg/kg/injection, schedule: Q04DX002 (ip), vehicle: saline with Tween-80 113 % of control | endpoint: mean survival time, dose: 200.0 mg/kg/injection, schedule: Q04DX002 (ip), vehicle: saline with Tween-80 101 % of control

O=c1c2nc(-c3ccccc3)oc2ncn1C1OC(CO)C(O)C1O (stereo not drawn)
inactive: endpoint: mean survival time, dose: 100.0 mg/kg/injection, schedule: Q01DX005 (ip), vehicle: saline 100 % of control | endpoint: mean survival time, dose: 200.0 mg/kg/injection, schedule: Q01DX005 (ip), vehicle: saline 98 % of control

COc1cc[n+](C)cc1
inactive: endpoint: mean survival time, dose: 100.0 mg/kg/injection, schedule: Q04DX002 (ip), vehicle: saline 100 % of control | endpoint: mean survival time, dose: 200.0 mg/kg/injection, schedule: Q04DX002 (ip), vehicle: saline 91 % of control | endpoint: mean survival time, dose: 400.0 mg/kg/injection, schedule: Q04DX002 (ip), vehicle: saline 95 % of control

Nc1ncnc2nc(C(O)C(O)C(O)C(O)CO)[nH]c12 (stereo not drawn)
inactive: endpoint: median survival time, dose: 12.5 mg/kg/injection, schedule: Q01DX005 (ip), vehicle: distilled water + Tween-80 98 % of control | endpoint: median survival time, dose: 25.0 mg/kg/injection, schedule: Q01DX005 (ip), vehicle: distilled water + Tween-80 98 % of control | endpoint: median survival time, dose: 50.0 mg/kg/injection, schedule: Q01DX005 (ip), vehicle: distilled water + Tween-80 100 % of control | endpoint: median survival time, dose: 100.0 mg/kg/injection, schedule: Q01DX005 (ip), vehicle: distilled water + Tween-80 97 % of control | endpoint: median survival time, dose: 200.0 mg/kg/injection, schedule: Q01DX005 (ip), vehicle: distilled water + Tween-80 98 % of control
